Assay results from paper PMC12196264, “Design and Synthesis of Pyridine-Based Pyrrolo[2,3-d]pyrimidine Analogs as CSF1R Inhibitors: Molecular Hybridization and Scaffold Hopping Approach” (Pharmaceuticals, 2025).
Values after ≈ are worked out from the molar mass of the structure shown.

Columns and labels:
[1] = Microsomal stability, human liver microsomes; type: in vitro ADME; settings: human liver microsome
Experimental: (§1) The aqueous solubility of the compounds and metabolic stability under oxidative conditions was performed as described previously.

PAK1 = PAK1 (Homo sapiens, UniProt Q13153); test: Kinase panel; type: biochemical
Experimental: (§2) Ta b l e S 1. Inhibition (%) by compound 14c towards di7erent kinases. Values are average of two
(§3) measurements at 1000 nM test concentration. The ATP concentration was equal to KM.
(§4) Kinase ATP conc. % inhibition

MINK1 = MINK1 (Homo sapiens, UniProt Q8N4C8); test: Kinase panel; type: biochemical
Experimental: as §2, §3, §4

AKT1 = AKT1 (Homo sapiens, UniProt P31749); test: Kinase panel; type: biochemical
Experimental: as §2, §3, §4

JAK2 = JAK2 (Homo sapiens, UniProt O60674); test: Kinase panel; type: biochemical
Experimental: as §2, §3, §4

ABL1 = ABL1 (Homo sapiens, UniProt P00519); test: Kinase panel; type: biochemical
Experimental: as §2, §3, §4

MET = MET (Homo sapiens, UniProt P08581); test: Kinase panel; type: biochemical
Experimental: as §2, §3, §4

FGFR1 = FGFR1 (Homo sapiens, UniProt P11362); test: Kinase panel; type: biochemical
Experimental: as §2, §3, §4

FRAP1 = FRAP1 (Homo sapiens, UniProt P42345); test: Kinase panel; type: biochemical
Experimental: as §2, §3, §4

CLK1 = CLK1 (Homo sapiens, UniProt P49759); test: Kinase panel; type: biochemical
Experimental: as §2, §3, §4

CHEK1 = CHEK1 (Homo sapiens, UniProt O14757); test: Kinase panel; type: biochemical
Experimental: as §2, §3, §4

PLK1 = PLK1 (Homo sapiens, UniProt P53350); test: Kinase panel; type: biochemical
Experimental: as §2, §3, §4

FLT3 = FLT3 (Homo sapiens, UniProt P36888); test: Kinase panel; type: biochemical
Experimental: as §2, §3, §4

ABL2 = ABL2 (Homo sapiens, UniProt P42684); test: Kinase panel; type: biochemical
Experimental: as §2, §3, §4

EGFR = EGFR (Homo sapiens, UniProt P00533); test: Kinase panel; type: biochemical
Experimental: as §2, §3, §4

KIT = KIT (Homo sapiens, UniProt P10721); test: Kinase panel; type: biochemical
Experimental: as §2, §3, §4

ALK = ALK (Homo sapiens, UniProt Q9UM73); test: Kinase panel; type: biochemical
Experimental: as §2, §3, §4

MKNK1 = MKNK1 (Homo sapiens, UniProt Q9BUB5); test: Kinase panel; type: biochemical
Experimental: as §2, §3, §4

YES1 = YES1 (Homo sapiens, UniProt P07947); test: Kinase panel; type: biochemical
Experimental: as §2, §3, §4

BTK = BTK (Homo sapiens, UniProt Q06187); test: Kinase panel; type: biochemical
Experimental: as §2, §3, §4

SRC = SRC (Homo sapiens, UniProt P12931); test: Kinase panel; type: biochemical
Experimental: as §2, §3, §4

MUSK = MUSK (Homo sapiens, UniProt O15146); test: Kinase panel; type: biochemical
Experimental: as §2, §3, §4

FLT4 = FLT4 (Homo sapiens, UniProt P35916); test: Kinase panel; type: biochemical
Experimental: as §2, §3, §4

AXL = AXL (Homo sapiens, UniProt P30530); test: Kinase panel; type: biochemical
Experimental: as §2, §3, §4

FYN = FYN (Homo sapiens, UniProt P06241); test: Kinase panel; type: biochemical
Experimental: as §2, §3, §4

PDGFRB = PDGFRB (Homo sapiens, UniProt P09619); test: Kinase panel; type: biochemical; settings: 1000 nM test concentration, ATP Km app, average of two measurements
Experimental: as §2, §3, §4

Aurora B = Aurora B (Homo sapiens, UniProt Q96GD4); test: Kinase panel; type: biochemical
Experimental: as §2, §3, §4

TEK = TEK (Homo sapiens, UniProt Q02763); test: Kinase panel; type: biochemical
Experimental: as §2, §3, §4

CDK1 = CDK1 (Homo sapiens, UniProt P06493); test: Kinase panel; type: biochemical
Experimental: as §2, §3, §4

GSK3B = GSK3B (Homo sapiens, UniProt P49841); test: Kinase panel; type: biochemical
Experimental: as §2, §3, §4

LTK = LTK (Homo sapiens, UniProt P29376); test: Kinase panel; type: biochemical
Experimental: as §2, §3, §4

LYN A = LYN A (Homo sapiens, UniProt P07948); test: Kinase panel; type: biochemical
Experimental: as §2, §3, §4

HCK = HCK (Homo sapiens, UniProt P08631); test: Kinase panel; type: biochemical
Experimental: as §2, §3, §4

NEK1 = NEK1 (Homo sapiens, UniProt Q96PY6); test: Kinase panel; type: biochemical
Experimental: as §2, §3, §4

EPHA2 = EPHA2 (Homo sapiens, UniProt P29317); test: Kinase panel; type: biochemical
Experimental: as §2, §3, §4

CSF1R = CSF1R (Homo sapiens, UniProt P07333); test: CSF1R enzymatic inhibitory assay (TR-FRET LANCE Ultra); type: biochemical; settings: single eight-point titrations, ATP 25 μM, R^2 of fit in parentheses
Experimental: The TR-FRET-based LANCE Ultra assay (Perkin Elmer, Waltham, MA, USA) was used to determine IC50 values for various CSF1R inhibitors. Kinase activity and inhibition in this assay was measured as previously reported. Scigilian Analyze software version 5.8.5.15 (Scigilian, Montreal, QC, Canada) was used.

MDCK permeability assay = type: in vitro ADME, canine; settings: dog, MDCK monolayer
Experimental: Six selected compounds were assessed for metabolic stability (clearance) in mouse liver microsomes (MLM) and human liver microsomes (HLM), and apparent permeability (Papp) using a MDCK permeability assay. […] Although currently limited by solubility and permeability, its metabolic profile provides a starting point for targeted structural modifications aimed at overcoming these challenges.

Kinetic solubility = type: physicochemical; settings: aqueous buffer, kinetic from dmso stock; spectrophotometric, pH 7.4 in HEPES buffer
Experimental: as §1

PDGFRB, sequence (P09619 33-1106, species assumed): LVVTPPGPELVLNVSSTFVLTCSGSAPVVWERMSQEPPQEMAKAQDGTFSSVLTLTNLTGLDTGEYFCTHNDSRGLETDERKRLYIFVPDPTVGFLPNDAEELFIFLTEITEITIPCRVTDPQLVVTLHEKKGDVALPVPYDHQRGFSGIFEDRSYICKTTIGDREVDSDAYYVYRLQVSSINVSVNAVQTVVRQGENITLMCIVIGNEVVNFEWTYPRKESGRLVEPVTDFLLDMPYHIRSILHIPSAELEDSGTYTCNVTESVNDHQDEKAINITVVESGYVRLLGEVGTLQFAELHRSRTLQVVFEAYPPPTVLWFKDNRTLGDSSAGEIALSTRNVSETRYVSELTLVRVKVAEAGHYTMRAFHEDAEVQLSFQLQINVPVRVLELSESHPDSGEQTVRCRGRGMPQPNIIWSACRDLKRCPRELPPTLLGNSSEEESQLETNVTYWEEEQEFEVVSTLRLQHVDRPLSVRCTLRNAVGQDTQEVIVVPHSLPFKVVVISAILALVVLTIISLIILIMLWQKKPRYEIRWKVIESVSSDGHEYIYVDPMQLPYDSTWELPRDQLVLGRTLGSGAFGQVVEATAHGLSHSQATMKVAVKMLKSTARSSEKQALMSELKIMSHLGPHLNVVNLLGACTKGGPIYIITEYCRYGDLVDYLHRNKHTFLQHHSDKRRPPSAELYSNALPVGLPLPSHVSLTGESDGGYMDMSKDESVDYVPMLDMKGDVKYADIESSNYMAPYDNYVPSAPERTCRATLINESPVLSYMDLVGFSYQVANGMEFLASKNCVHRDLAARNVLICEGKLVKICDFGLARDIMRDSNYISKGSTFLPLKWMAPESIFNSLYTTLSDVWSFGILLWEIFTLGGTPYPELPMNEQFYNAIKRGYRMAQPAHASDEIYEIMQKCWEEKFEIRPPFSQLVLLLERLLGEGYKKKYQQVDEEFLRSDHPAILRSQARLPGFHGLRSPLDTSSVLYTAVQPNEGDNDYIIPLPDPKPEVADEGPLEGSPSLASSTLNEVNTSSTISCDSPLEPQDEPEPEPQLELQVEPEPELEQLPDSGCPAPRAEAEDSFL
BTK, sequence (Q06187 whole entry, species assumed): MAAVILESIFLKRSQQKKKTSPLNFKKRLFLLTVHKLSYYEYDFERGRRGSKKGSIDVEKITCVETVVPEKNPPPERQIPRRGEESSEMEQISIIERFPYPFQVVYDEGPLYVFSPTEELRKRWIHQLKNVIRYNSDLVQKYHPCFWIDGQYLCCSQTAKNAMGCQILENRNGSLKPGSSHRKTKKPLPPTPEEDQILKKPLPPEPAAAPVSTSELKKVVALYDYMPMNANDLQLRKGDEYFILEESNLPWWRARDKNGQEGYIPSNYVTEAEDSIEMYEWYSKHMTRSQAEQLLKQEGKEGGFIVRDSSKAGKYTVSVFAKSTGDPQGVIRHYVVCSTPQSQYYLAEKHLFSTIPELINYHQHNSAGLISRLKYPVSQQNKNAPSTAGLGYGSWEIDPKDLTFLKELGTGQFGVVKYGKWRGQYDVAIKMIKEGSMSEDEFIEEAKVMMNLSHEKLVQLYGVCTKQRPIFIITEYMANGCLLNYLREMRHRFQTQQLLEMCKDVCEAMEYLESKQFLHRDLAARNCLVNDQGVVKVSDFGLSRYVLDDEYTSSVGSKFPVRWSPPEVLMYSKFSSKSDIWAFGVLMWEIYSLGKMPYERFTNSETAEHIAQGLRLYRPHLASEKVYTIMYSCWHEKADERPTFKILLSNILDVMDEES
FLT4, sequence (P35916 25-1363, species assumed): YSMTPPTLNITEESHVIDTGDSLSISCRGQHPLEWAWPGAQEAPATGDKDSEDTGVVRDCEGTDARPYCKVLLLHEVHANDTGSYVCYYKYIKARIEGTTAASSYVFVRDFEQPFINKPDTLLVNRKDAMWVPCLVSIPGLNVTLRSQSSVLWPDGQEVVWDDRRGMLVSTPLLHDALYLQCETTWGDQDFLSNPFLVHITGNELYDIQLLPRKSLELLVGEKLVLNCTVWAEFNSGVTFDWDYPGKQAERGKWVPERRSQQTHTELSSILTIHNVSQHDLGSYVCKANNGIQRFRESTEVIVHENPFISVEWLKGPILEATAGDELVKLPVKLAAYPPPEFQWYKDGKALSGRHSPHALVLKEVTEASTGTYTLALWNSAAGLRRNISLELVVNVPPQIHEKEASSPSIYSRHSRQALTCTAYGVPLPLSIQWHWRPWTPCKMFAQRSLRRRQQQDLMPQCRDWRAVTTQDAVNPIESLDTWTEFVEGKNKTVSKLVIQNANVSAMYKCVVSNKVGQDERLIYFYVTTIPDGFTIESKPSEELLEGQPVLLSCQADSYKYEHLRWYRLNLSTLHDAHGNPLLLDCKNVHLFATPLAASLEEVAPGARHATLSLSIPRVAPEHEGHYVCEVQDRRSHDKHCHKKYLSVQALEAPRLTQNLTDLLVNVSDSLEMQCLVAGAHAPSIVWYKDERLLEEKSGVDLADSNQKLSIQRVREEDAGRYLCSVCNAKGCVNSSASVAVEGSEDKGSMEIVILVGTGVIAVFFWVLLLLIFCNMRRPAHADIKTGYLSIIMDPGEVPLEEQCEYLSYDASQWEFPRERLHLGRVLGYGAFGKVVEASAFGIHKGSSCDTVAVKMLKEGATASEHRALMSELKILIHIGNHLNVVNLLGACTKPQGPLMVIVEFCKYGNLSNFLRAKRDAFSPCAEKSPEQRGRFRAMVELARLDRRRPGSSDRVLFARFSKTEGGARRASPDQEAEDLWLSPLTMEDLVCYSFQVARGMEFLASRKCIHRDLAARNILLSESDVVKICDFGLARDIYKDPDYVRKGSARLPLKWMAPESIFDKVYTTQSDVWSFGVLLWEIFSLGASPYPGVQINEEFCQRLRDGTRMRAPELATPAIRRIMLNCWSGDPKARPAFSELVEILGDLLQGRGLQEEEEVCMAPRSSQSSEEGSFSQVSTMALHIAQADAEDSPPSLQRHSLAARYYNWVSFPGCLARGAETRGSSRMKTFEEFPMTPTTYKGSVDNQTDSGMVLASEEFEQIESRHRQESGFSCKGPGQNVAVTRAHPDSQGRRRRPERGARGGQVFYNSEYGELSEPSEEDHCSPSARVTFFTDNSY
CHEK1, sequence (O14757 whole entry, species assumed): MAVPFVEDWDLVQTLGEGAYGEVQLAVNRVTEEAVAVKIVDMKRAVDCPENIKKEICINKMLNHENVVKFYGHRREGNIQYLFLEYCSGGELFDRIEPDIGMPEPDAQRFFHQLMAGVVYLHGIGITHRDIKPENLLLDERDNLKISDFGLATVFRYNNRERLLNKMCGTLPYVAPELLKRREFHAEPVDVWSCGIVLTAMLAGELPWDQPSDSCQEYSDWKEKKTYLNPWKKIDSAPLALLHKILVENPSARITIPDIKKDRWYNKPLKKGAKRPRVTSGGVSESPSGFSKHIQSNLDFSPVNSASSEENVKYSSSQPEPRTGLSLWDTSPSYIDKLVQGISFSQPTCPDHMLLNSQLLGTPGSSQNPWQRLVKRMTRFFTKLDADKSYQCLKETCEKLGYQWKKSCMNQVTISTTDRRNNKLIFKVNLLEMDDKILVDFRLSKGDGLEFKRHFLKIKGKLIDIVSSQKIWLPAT
LTK, sequence (P29376 17-864, species assumed): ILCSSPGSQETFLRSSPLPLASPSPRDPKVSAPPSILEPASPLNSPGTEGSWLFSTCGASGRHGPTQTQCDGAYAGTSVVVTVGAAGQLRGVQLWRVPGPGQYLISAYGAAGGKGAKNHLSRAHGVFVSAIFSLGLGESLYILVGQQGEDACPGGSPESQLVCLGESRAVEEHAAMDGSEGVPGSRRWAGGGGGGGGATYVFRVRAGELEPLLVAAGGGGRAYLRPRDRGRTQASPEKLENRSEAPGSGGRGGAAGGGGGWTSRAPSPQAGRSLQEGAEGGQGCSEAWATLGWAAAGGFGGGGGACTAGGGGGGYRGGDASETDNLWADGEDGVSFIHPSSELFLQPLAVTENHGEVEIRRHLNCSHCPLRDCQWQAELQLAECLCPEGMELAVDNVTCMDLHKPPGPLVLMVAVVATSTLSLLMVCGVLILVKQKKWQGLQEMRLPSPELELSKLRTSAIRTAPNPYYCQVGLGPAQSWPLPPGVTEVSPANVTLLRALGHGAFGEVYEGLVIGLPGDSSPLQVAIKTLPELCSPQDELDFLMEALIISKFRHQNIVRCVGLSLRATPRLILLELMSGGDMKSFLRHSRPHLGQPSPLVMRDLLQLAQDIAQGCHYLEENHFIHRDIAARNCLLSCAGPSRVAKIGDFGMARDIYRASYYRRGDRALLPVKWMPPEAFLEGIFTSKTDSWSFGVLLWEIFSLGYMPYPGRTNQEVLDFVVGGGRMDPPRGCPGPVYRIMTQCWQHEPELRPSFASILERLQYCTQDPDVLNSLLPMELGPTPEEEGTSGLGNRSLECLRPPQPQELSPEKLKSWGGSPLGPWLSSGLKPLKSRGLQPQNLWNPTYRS
HCK, sequence (P08631 whole entry, species assumed): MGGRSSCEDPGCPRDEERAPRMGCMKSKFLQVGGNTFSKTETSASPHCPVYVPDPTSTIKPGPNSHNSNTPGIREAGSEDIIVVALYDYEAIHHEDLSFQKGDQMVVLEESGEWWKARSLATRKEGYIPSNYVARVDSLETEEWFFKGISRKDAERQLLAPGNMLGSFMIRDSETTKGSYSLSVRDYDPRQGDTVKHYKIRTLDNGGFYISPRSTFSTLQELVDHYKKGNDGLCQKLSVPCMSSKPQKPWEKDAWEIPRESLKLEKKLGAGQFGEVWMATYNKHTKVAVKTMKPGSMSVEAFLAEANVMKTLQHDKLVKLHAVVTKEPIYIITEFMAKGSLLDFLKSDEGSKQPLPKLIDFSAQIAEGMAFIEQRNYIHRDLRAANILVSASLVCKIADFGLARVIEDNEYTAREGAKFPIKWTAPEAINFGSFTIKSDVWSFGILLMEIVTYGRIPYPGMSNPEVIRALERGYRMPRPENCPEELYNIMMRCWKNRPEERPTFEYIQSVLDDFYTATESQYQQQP

SMILES: Cc1cccc(CN(C)c2ncnc3[nH]c(-c4ccc(NCc5ccc(C(F)(F)F)nc5)nc4)cc23)c1 [Compound 14c, N-Methyl-N-(3-methylbenzyl)-6-(6-(((6-(trifluoromethyl)pyridin-3-yl)methyl)amino)pyridin-3-yl)-7H-pyrrolo[2,3-d]pyrimidin-4-amine]
- HLM in vitro intrinsic clearing [1]: 77 µL/min/mg
- inhibition at 1 µM (PAK1): 9%
- inhibition at 1 µM (MINK1): 69%
- inhibition at 1 µM (AKT1): 2%
- inhibition at 1 µM (JAK2): 4%
- inhibition at 1 µM (ABL1): 71%
- inhibition at 1 µM (MET): 10%
- inhibition at 1 µM (FGFR1): 3%
- inhibition at 1 µM (FRAP1): -5%
- inhibition at 1 µM (CLK1): 3%
- inhibition at 1 µM (CHEK1): 11%
- inhibition at 1 µM (PLK1): 7%
- inhibition at 1 µM (FLT3): 26%
- inhibition at 1 µM (ABL2): 75%
- inhibition at 1 µM (EGFR): 57%
- inhibition at 1 µM (KIT): 18%
- inhibition at 1 µM (ALK): 11%
- inhibition at 1 µM (MKNK1): 1%
- inhibition at 1 µM (YES1): 65%
- inhibition at 1 µM (BTK): 13%
- inhibition at 1 µM (SRC): 43%
- inhibition at 1 µM (MUSK): 19%
- inhibition at 1 µM (FLT4): 2%
- inhibition at 1 µM (AXL): 4%
- inhibition at 1 µM (FYN): 16%
- inhibition at 1 µM (PDGFRB): 9%
- % inhibition PDGFRB (PDGFRB; 1 µM): 8%
- inhibition at 1 µM (Aurora B): 34%
- inhibition at 1 µM (TEK): 8%
- inhibition at 1 µM (CDK1): 12%
- inhibition at 1 µM (GSK3B): 11%
- inhibition at 1 µM (LTK): 15%
- inhibition at 1 µM (LYN A): 18%
- inhibition at 1 µM (HCK): 16%
- inhibition at 1 µM (NEK1): 16%
- inhibition at 1 µM (EPHA2): 23%
- IC50 (CSF1R): 7.18 nM
- Papp A→B (MDCK permeability assay; A–B direction): 5.4 ×10⁻⁶ cm/s
- Papp B→A (MDCK permeability assay; B–A direction): 0.8 ×10⁻⁶ cm/s
- efflux ratio (MDCK permeability assay; read-out: MDCK Ratio (Papp B–A/A–B)): 0.14
- solubility kinetic (Kinetic solubility): 0.7 µM (≈ 0.352 µg/mL)
